{"source": "patent US8207121B2", "about": "“Sensitization to another anticancer therapy and/or amelioration of a side effect of another anticancer therapy by treatment with a GST-activated anticancer compound” (Telik, Inc., priority 2004, dated 2012)", "key": {"GST M1a-1a": {"molecular_target": "T1, GST M1a-1a (Homo sapiens, UniProt P09488)", "T1 sequence (P09488 1-218)": "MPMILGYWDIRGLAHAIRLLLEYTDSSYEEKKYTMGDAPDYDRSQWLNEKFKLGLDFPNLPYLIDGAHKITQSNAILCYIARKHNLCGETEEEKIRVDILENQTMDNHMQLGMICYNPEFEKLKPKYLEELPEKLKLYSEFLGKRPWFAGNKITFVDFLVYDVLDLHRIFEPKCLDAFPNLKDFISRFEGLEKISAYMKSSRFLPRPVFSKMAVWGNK", "details": "cited from earlier work"}, "GST P1-1": {"molecular_target": "GST P1-1 (Homo sapiens, UniProt P09211)", "sequence (P09211 2-210 limits assumed)": "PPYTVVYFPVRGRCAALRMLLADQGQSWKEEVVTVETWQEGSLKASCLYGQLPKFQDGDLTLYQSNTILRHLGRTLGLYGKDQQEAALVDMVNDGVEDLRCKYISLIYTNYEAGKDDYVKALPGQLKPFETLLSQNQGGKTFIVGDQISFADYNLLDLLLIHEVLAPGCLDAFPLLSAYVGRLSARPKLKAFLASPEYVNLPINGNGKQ", "details": "cited from earlier work"}, "GST A1-1": {"molecular_target": "T2, GST A1-1 (Homo sapiens, UniProt P08263)", "T2 sequence (P08263 1-222)": "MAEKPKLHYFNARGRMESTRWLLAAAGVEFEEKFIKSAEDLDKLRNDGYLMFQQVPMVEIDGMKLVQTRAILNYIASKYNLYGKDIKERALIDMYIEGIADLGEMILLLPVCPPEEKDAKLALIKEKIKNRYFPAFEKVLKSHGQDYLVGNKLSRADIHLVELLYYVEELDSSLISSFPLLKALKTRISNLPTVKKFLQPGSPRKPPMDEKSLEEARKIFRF", "details": "cited from earlier work"}, "[1]": {"assay": "Clinical observation: side effects of carboplatin therapy in ovarian cancer patients", "assay_type": "in vivo, human", "source_text": "Ovarian cancer patients treated with carboplatin-containing regimens underwent repeated cycles of alopecia corresponding to the administration of the carboplatin."}, "[2]": {"test_system": "ovarian, breast, non-small cell lung, and colorectal cancers", "details": "cited from earlier work"}, "M7609 xenografts": {"test_system": "M7609 xenografts", "details": "xenografts engineered to have high, medium, and low GST P1-1; cited from earlier work"}, "[3]": {"test_system": "cell culture and tumor biopsies", "details": "cited from earlier work"}, "OVCAR-PR cells": {"test_system": "OVCAR-PR cells", "assay": "Cytotoxicity assay (CellTiter-Glo), paclitaxel-resistant OVCAR-PR", "assay_type": "cell-based, human", "details": "for IC50: Homo sapiens; for increase in resistance: IC50 in OVCAR-PR cells versus OVCAR-3 cells", "procedure": "(§1) A paclitaxel-resistant derivative cell line OVCAR-PR was developed from the human ovarian cancer cell line OVCAR-3 by growing OVCAR-3 cells in gradually increasing concentrations (up to 5 nM) of paclitaxel. A canfosfamide-modified derivative cell line OVCAR-TLK was developed by growing OVCAR-3 cells in gradually increasing concentrations (up to 6.5 μM) of canfosfamide. To maintain the phenotypes of the cell lines, the cells were treated with the compounds at weekly intervals. Cells were grown in compound-free media for 24 hours before any experiments.\n(§2) Cytotoxicity assay. Log-phase cells were seeded in 96-well plates and incubated with the diluted compound or solvent for 2-3 doubling times. The extent of cell growth was quantitated using the CellTiter-Glo assay (Promega Corporation, Madison, Wis., U.S.A.), used in accordance with the assay kit directions. The amount of ATP in the lysate, which corresponds to the number of viable cells, was quantitated using a luminometer. All assays were conducted in triplicate wells, with solvent control. The extent of cell growth was expressed as a percentage of the signal from the solvent control wells. The mean of the triplicate wells was computed and IC50 determined using PrismGraph."}, "OVCAR-3 cells": {"test_system": "OVCAR-3 cells", "assay": "Cytotoxicity assay (CellTiter-Glo), OVCAR-3", "assay_type": "cell-based", "details": "Homo sapiens", "procedure": "Cancer cell line. The human cancer cell line OVCAR-3 (ovarian adenocarcinoma) was obtained from the National Cancer Institute, Bethesda, Md., U.S.A.\nas §1, §2"}, "[4]": {"test_system": "M6709 human colon carcinoma cell line selected for resistance to doxorubicin", "details": "line overexpresses GST P1-1; cited from earlier work"}, "[5]": {"test_system": "MCF-7 human breast carcinoma cell line selected for resistance to cyclophosphamide", "details": "line overexpresses GST P1-1; cited from earlier work"}, "OVCAR-TLK cells": {"test_system": "OVCAR-TLK cells", "assay": "Cytotoxicity assay (CellTiter-Glo), canfosfamide-modified OVCAR-TLK", "assay_type": "cell-based, human", "procedure": "as §1, §2\nCell doubling time. 1.5×10^4 cells were seeded in a 25-mL flask. The cells were grown for four days and the number of viable cells was determined by Trypan Blue staining and manual counting using a hemocytometer. The assay was conducted in triplicate at each time point. The times for two cell doublings for OVCAR-3 and OVCAR-TLK cells were approximately 3.5 and 5.5 days, respectively."}}, "note": "Structures can show the parent of a compound that is named as a salt. Where two headings read alike, the source gives them in different places."}
{"compound": "N[C@@H](CCC(=O)N[C@@H](CS(=O)(=O)CCOP(=O)(N(CCCl)CCCl)N(CCCl)CCCl)C(=O)NCC(=O)O)C(=O)O", "note": "[TLK231, L-γ-glutamyl-3-[[2-[[bis[bis(2-chloroethyl)amino]phosphinyl]oxy]ethyl]sulfonyl]-L-alanyl-glycine]", "values": [{"measurement": "activation by GST isoenzyme", "setting": "GST M1a-1a", "value": "activated"}]}
{"compound": "N[C@@H](CCC(=O)N[C@@H](Cc1cccc(S(=O)(=O)CCOP(=O)(N(CCCl)CCCl)N(CCCl)CCCl)c1)C(=O)NCC(=O)O)C(=O)O", "note": "[TLK(296, L-γ-glutamyl-3-[[2-[[bis[bis(2-chloroethyl)amino]phosphinyl]oxy]ethyl]sulfonyl]-L-phenylalanyl-glycine]", "values": [{"measurement": "activation by GST isoenzyme", "setting": "GST P1-1", "value": "activated"}]}
{"compound": "C[C@@](NC(=O)[C@H](CS(=O)(=O)CCOP(=O)(N(CCCl)CCCl)N(CCCl)CCCl)NC(=O)CC[C@H](N)C(=O)O)(C(=O)O)c1ccccc1", "note": "[TLK(303, L-γ-glutamyl-3-[[2-[[bis[bis(2-chloroethyl)-amino]phosphinyl]oxy]ethyl]sulfonyl]-L-alanyl-2-phenyl-(2S)-alanine]", "values": [{"measurement": "activation by GST isoenzyme", "setting": "GST A1-1", "value": "activated"}]}
{"compound": "N[C@@H](CCC(=O)N[C@@H](CS(=O)(=O)CCOP(=O)(N(CCCl)CCCl)N(CCCl)CCCl)C(=O)N[C@@H](C(=O)O)c1ccccc1)C(=O)O", "note": "[canfosfamide hydrochloride]", "values": [{"measurement": "recurrence of alopecia with carboplatin treatment", "setting": "[1]; carboplatin AUC 5 or 6 mg/mL·min with canfosfamide hydrochloride 500, 750 and 960 mg/m^2", "value": "did not experience the same recurrence of alopecia"}, {"measurement": "hematologic and neurologic side effects of carboplatin", "setting": "[1]; carboplatin in combination with canfosfamide hydrochloride", "value": "similarly ameliorated"}, {"measurement": "hematological toxicity in patients", "setting": "[2]; treated patients", "value": "very low incidence of clinically significant hematological toxicity"}, {"measurement": "potency versus level of GST P1-1", "setting": "M7609 xenografts", "value": "positively correlated with the level of GST P1-1"}]}
{"compound": "N[C@@H](CCC(=O)N[C@@H](CS(=O)(=O)CCOP(=O)(N(CCCl)CCCl)N(CCCl)CCCl)C(=O)N[C@@H](C(=O)O)c1ccccc1)C(=O)O", "note": "[canfosfamide, L-γ-glutamyl-3-[[2-[[bis[bis(2-choroethyl)-amino]phosphinyl]oxy]ethyl]sulfonyl]-L-alanyl-2-phenyl-(2R)-glycine]", "values": [{"measurement": "cross-resistance to platinum, paclitaxel, doxorubicin and gemcitabine", "setting": "[3]", "value": "non-cross-resistant"}, {"measurement": "IC50", "setting": "OVCAR-PR cells", "value": 1600, "unit": "nM"}, {"measurement": "increase in resistance", "setting": "OVCAR-PR cells", "value": 1.2, "unit": "fold"}, {"measurement": "activation by GST isoenzyme", "setting": "GST P1-1", "value": "activated"}, {"measurement": "IC50", "setting": "OVCAR-3 cells; OVCAR-3", "value": 1300, "unit": "nM"}, {"measurement": "activation by GST isoenzyme", "setting": "GST A1-1", "value": "activated"}, {"measurement": "potency versus parental cell line", "setting": "[4]", "value": "more potent"}, {"measurement": "clinical activity", "setting": "[2]; colorectal and breast cancer", "value": "single agent antitumor activity"}, {"measurement": "clinical activity", "setting": "[2]; patients with non-small cell lung cancer and ovarian cancer", "value": "significant single agent antitumor activity and improvement in survival"}, {"measurement": "potency versus parental cell line", "setting": "[5]", "value": "more potent"}, {"measurement": "sensitivity to canfosfamide, OVCAR-3 versus OVCAR-TLK", "setting": "OVCAR-TLK cells; treated for approximately two doubling times", "value": "approximately equally sensitive"}]}
{"compound": "CC(=O)O[C@H]1C(=O)[C@@]2(C)[C@H]([C@H](OC(=O)c3ccccc3)[C@]3(O)C[C@H](OC(=O)[C@H](O)[C@@H](NC(=O)c4ccccc4)c4ccccc4)C(C)=C1C3(C)C)[C@]1(OC(C)=O)CO[C@@H]1C[C@@H]2O", "note": "[paclitaxel]", "values": [{"measurement": "IC50", "setting": "OVCAR-PR cells; OVCAR-PR cells, read-out: IC50", "value": 49, "unit": "nM"}, {"measurement": "increase in resistance", "setting": "OVCAR-PR cells", "value": "more than 35 fold"}, {"measurement": "decrease of IC50 for paclitaxel after canfosfamide pretreatment", "setting": "OVCAR-PR cells; OVCAR-PR cells first treated overnight with 4 μM canfosfamide", "value": "approximately 3 fold"}, {"measurement": "IC50", "setting": "OVCAR-3 cells; OVCAR-3 cells, read-out: IC50", "value": 1.3, "unit": "nM"}, {"measurement": "IC50s for paclitaxel, OVCAR-3 versus OVCAR-TLK", "setting": "OVCAR-TLK cells; equal treatment times", "value": "approximately the same"}, {"measurement": "IC50 for paclitaxel lower in OVCAR-TLK than in OVCAR-3 cells", "setting": "OVCAR-TLK cells; treatment times adjusted for doubling times (approximately two doubling times)", "value": "about 2 fold"}]}
